Measured values reported in ChEMBL document CHEMBL1201862, “PubChem BioAssay data set” (2004).
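Interpolation was linear, between the two tested concentrations surrounding the appropriate level; five concentrations were tested over 48 hours in 96-well plates. GI50 marks 50% less growth.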 Activity calls are given as the source filed them. Rule as the data show it: active = GI50 up to about 1.1 µM and inactive = higher.

Columns and labels:
Test in all cases: inhibition of tumour cell growth, NCI panel, 48 h
LOX IMVI = tested on: LOX IMVI
NCI-H23 = tested on: NCI-H23
SK-OV-3 = tested on: SK-OV-3
OVCAR-8 = tested on: OVCAR-8
KM12 = tested on: KM12
COLO 205 = tested on: COLO 205
NCI-H226 = tested on: NCI-H226
HT-29 = tested on: HT-29
MDA-MB-435 = tested on: MDA-MB-435
HCT-116 = tested on: HCT-116
SF-539 = tested on: SF-539
SR = tested on: SR
K562 = tested on: K562
ACHN = tested on: ACHN
SF-295 = tested on: SF-295
DU-145 = tested on: DU-145
UO-31 = tested on: UO-31
Malme-3M = tested on: Malme-3M
UACC-257 = tested on: UACC-257
NCI-H460 = tested on: NCI-H460

Row | SMILES | GI50 (LOX IMVI) | GI50 (NCI-H23) | GI50 (SK-OV-3) | GI50 (OVCAR-8) | GI50 (KM12) | GI50 (COLO 205) | GI50 (NCI-H226) | GI50 (HT-29) | GI50 (MDA-MB-435) | GI50 (HCT-116) | GI50 (SF-539) | GI50 (SR) | GI50 (K562) | GI50 (ACHN) | GI50 (SF-295) | GI50 (DU-145) | GI50 (UO-31) | GI50 (Malme-3M) | GI50 (UACC-257) | GI50 (NCI-H460)
1 | CCOC(=O)c1ccc(/N=c2/[nH]c3ccccc3s/c2=N/c2ccc(C(=O)OCC)cc2)cc1 | > 100 µM (inactive) | > 100 µM (inactive) | > 100 µM (inactive) | 86.7 µM (inactive) | > 100 µM (inactive) | > 100 µM (inactive) | > 100 µM (inactive) | 70.3 µM (inactive) | > 100 µM (inactive) | 53.1 µM (inactive) | 72.8 µM (inactive) | > 100 µM (inactive) | > 100 µM (inactive) | 29.1 µM (inactive) | 83 µM (inactive) | > 100 µM (inactive) | > 100 µM (inactive) | > 100 µM (inactive) | > 100 µM (inactive) | 40.6 µM (inactive)
2 | O=C(OCc1c(-c2ccccc2)nn(-c2ccccc2)c1COC(=O)Oc1ccccc1)Oc1ccccc1 | > 100 µM (inactive) | > 100 µM (inactive) | > 100 µM (inactive) | > 100 µM (inactive) | > 100 µM (inactive) | > 100 µM (inactive) | > 100 µM (inactive) | > 100 µM (inactive) | > 100 µM (inactive) | > 100 µM (inactive) | > 100 µM (inactive) | > 100 µM (inactive) | > 100 µM (inactive) | > 100 µM (inactive) | > 100 µM (inactive) | > 100 µM (inactive) |  | > 100 µM (inactive) | > 100 µM (inactive) | > 100 µM (inactive)
3 | S=C1C(CCCOCc2ccccc2)C2CCCC23CC2(CCN13)OCCS2 (stereo not given) | > 10 µM (inactive) | > 10 µM (inactive) | > 10 µM (inactive) | > 10 µM (inactive) | > 10 µM (inactive) | > 10 µM (inactive) | > 10 µM (inactive) | > 10 µM (inactive) | > 10 µM (inactive) |  | > 10 µM (inactive) | > 10 µM (inactive) | > 10 µM (inactive) | > 10 µM (inactive) | > 10 µM (inactive) | > 10 µM (inactive) | > 10 µM (inactive) | > 10 µM (inactive) | > 10 µM (inactive) | > 10 µM (inactive)
4 | COC1/C=C/C(C)C(OC)CC(O)/C=C/C(C)C(C(C)C(OC)C(C)CCC(=O)C(C)C(C/C=C/N(C)C=O)OC)OC(=O)/C=C/C=C(\C)CC(OC)C(OC)C2=CC(=O)O[C@@H](C(C)C(OC)C1)[C@H]2O (stereo not given in full) | 0.00791 µM (active) | 0.0512 µM (active) | 0.0436 µM (active) | 0.0514 µM (active) | 0.0399 µM (active) | 0.0205 µM (active) | 0.0194 µM (active) | 0.0356 µM (active) | 0.0532 µM (active) | 0.00847 µM (active) | 0.0313 µM (active) | 0.0617 µM (active) |  | 0.0367 µM (active) | 0.0345 µM (active) | 0.0959 µM (active) | 0.0419 µM (active) | 0.04 µM (active) | 0.0448 µM (active) | 0.0172 µM (active)
5 | CN(CCC#N)c1ccc(/C=C2\SC(=S)NC2=O)cc1 | 8.2 µM (inactive) | 39.5 µM (inactive) | 71.9 µM (inactive) | > 100 µM (inactive) | 40.7 µM (inactive) | 48.2 µM (inactive) | > 100 µM (inactive) | 87.1 µM (inactive) | 31.6 µM (inactive) | 29.2 µM (inactive) | 49.4 µM (inactive) | 24.3 µM (inactive) | 45.4 µM (inactive) | 62.4 µM (inactive) | 35.9 µM (inactive) | 73.6 µM (inactive) | 27.2 µM (inactive) | > 100 µM (inactive) | > 100 µM (inactive) | 25.9 µM (inactive)
6 | Nc1ncnc2c1ncn2C1OC(C(=O)OCCO)C(O)C1O (stereo not given) | > 100 µM (inactive) | > 100 µM (inactive) | > 100 µM (inactive) | > 100 µM (inactive) | > 100 µM (inactive) | > 100 µM (inactive) | > 100 µM (inactive) | > 100 µM (inactive) | > 100 µM (inactive) | > 100 µM (inactive) | > 100 µM (inactive) | > 100 µM (inactive) | > 100 µM (inactive) | > 100 µM (inactive) | > 100 µM (inactive) | > 100 µM (inactive) | > 100 µM (inactive) | > 100 µM (inactive) | > 100 µM (inactive) | > 100 µM (inactive)
7 | Cc1ccc(OCC2OC(n3cnc4nc(N)nc(Cl)c43)CC2Oc2ccc(C)cc2)cc1 (stereo not given) | 15.7 µM (inactive) | 15.6 µM (inactive) | 33.9 µM (inactive) | 15.7 µM (inactive) | 21 µM (inactive) | 16.8 µM (inactive) | 18.1 µM (inactive) | 23.7 µM (inactive) | 27.9 µM (inactive) | 22 µM (inactive) | 23.3 µM (inactive) | 6.71 µM (inactive) |  | 15.2 µM (inactive) | 27.6 µM (inactive) | 18 µM (inactive) |  | 24.3 µM (inactive) | 34.1 µM (inactive) | 21.4 µM (inactive)
